# Measurements published in patent US20140213513A1 (Sanofi, priority 2012, published 2014).
# pEC50: −log10 of the molar value. *1 amine or outer side, *2 acyl side, *3 side chain or, on linkers, in order; H or OH if unused. Where a SMILES comes first, the peptide text is derived from it. Side-chain parts run from the residue outwards. [ ]: non-standard residue; d: D form. The star is where a group is joined. γGlu = O=C(O)[C@H](CCC(=O)[*:2])N[*:1]; Stearoyl = CCCCCCCCCCCCCCCCCC(=O)*; Palmitoyl = CCCCCCCCCCCCCCCC(=O)*; Aib = CC(C)(N)C(=O)O
# Key:
# Type in all cases: cell-based
# Details in all cases: Table 7; cAMP formation
# [1] = biological target: T1, human GLP-1 receptor (hGLP-1 R) (Homo sapiens, UniProt P43220); assay: cAMP response of HEK-293 cells stably expressing human GLP-1 receptor (HTRF)
# T1 construct: expressed in transfected cells
# Protocol: (§1) cAMP content of cells was determined using a kit from Cisbio Corp. (cat. no. 62AM4PEC) based on HTRF (Homogenous Time Resolved Fluorescence). For preparation, cells were split into T175 culture flasks and grown overnight to near confluency in medium (DMEM/10% FBS). Medium was then removed and cells washed with PBS lacking calcium and magnesium, followed by proteinase treatment with accutase (Sigma-Aldrich cat. no. A6964). Detached cells were washed and resuspended in assay buffer (1×HBSS; 20 mM HEPES, 0.1% BSA, 2 mM IBMX) and cellular density determined. They were then diluted to 400000 cells/ml and 25 μl-aliquots dispensed into the wells of 96-well plates. For measurement, 25 μl of test compound in assay buffer was added to the wells, followed by incubation for 30 minutes at room temperature.
# [2] = biological target: T2, human glucagon receptor (hGLUC R) (Homo sapiens, UniProt P47871); assay: cAMP response of HEK-293 cells stably expressing human glucagon receptor (HTRF)
# T2 construct: expressed in transfected cells
# Protocol: as §1
# [3] = biological target: T3, human GIP receptor (hGIP R) (Homo sapiens, UniProt P48546); assay: cAMP response of HEK-293 cells stably expressing human GIP receptor (HTRF)
# T3 construct: expressed in transfected cells
# T3 sequence (P48546 22-466): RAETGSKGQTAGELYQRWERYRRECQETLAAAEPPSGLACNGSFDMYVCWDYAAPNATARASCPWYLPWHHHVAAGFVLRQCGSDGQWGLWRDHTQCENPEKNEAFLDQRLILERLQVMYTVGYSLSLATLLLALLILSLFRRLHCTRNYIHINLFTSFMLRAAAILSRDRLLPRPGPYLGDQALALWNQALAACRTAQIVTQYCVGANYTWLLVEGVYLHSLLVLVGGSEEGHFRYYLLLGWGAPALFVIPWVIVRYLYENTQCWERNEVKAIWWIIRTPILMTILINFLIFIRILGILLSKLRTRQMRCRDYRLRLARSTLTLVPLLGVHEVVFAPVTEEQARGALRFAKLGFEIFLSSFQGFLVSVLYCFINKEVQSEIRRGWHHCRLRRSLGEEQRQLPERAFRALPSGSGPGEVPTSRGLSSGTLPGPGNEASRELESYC
# Protocol: as §1
# T1 sequence (P43220 24-463): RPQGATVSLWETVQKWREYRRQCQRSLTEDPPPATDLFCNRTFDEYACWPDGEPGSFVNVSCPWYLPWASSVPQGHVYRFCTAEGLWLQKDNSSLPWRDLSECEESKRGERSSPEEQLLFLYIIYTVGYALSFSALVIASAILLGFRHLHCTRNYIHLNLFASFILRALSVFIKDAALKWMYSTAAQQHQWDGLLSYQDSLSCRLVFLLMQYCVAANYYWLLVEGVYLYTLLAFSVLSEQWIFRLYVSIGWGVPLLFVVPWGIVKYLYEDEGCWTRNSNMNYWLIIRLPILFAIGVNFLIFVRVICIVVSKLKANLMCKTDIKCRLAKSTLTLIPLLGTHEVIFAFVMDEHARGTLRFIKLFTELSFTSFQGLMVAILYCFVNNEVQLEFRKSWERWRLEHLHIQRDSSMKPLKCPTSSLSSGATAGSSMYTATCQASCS
# T2 sequence (P47871 26-477): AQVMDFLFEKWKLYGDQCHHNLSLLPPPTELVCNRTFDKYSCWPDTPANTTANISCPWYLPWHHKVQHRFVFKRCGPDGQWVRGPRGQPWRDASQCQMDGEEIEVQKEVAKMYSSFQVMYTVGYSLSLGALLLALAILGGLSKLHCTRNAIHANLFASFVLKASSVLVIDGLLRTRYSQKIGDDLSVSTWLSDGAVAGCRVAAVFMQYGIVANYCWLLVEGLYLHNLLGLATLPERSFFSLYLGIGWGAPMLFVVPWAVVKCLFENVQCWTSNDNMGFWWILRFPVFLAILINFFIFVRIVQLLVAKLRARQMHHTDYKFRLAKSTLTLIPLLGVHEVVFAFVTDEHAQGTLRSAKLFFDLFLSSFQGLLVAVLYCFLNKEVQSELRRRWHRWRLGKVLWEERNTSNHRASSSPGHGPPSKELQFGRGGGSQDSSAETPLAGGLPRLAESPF
Compound,pEC50 [1],pEC50 [2],pEC50 [3]
"CCCCCCCCCCCCCCCC(=O)N[C@@H](CCC(=O)NCCCC[C@H](NC(=O)[C@H](CCC(N)=O)NC(=O)[C@H](CCCCN)NC(=O)[C@H](CO)NC(=O)[C@H](CC(C)C)NC(=O)[C@H](CC(=O)O)NC(=O)[C@H](CO)NC(=O)[C@@H](NC(=O)[C@H](Cc1ccccc1)NC(=O)[C@@H](NC(=O)CNC(=O)[C@H](CCC(N)=O)NC(=O)C(C)(C)NC(=O)[C@@H](N)Cc1ccc(O)cc1)[C@@H](C)O)[C@@H](C)O)C(=O)N[C@@H](CC(=O)O)C(=O)N[C@@H](CO)C(=O)N[C@@H](CCCNC(=N)N)C(=O)N[C@@H](C)C(=O)N[C@@H](C)C(=O)N[C@@H](CCCNC(=N)N)C(=O)N[C@@H](CC(=O)O)C(=O)N[C@@H](Cc1ccccc1)C(=O)N[C@H](C(=O)N[C@@H](CCC(=O)O)C(=O)N[C@@H](Cc1c[nH]c2ccccc12)C(=O)N[C@@H](CC(C)C)C(=O)N[C@@H](CCCCN)C(=O)N[C@@H](C)C(=O)NCC(=O)NCC(=O)N1CCC[C@H]1C(=O)N[C@@H](CO)C(=O)N[C@@H](CO)C(=O)NCC(=O)N[C@@H](C)C(=O)N1CCC[C@H]1C(=O)N1CCC[C@H]1C(=O)N1CCC[C@H]1C(=O)N[C@@H](CO)C(N)=O)[C@@H](C)CC)C(=O)O [SEQ ID NO: 56, Y-Aib-Q-G-T-F-T-S-D-L-S-K-Q-K(yE-x53)-DSRAARDFIEWLKAGGPSSGAPPPS-NH2] (H-Y[Aib]QGTFTSDLSKQK([γGlu-Palmitoyl])DSRAARDFIEWLKAGGPSSGAPPPS-NH2)",11.34,10.70,9.79
"CCCCCCCCCCCCCCCC(=O)N[C@@H](CCC(=O)NCCCC[C@H](NC(=O)[C@H](CCC(N)=O)NC(=O)[C@H](CCCCN)NC(=O)[C@H](CO)NC(=O)[C@H](CC(C)C)NC(=O)[C@H](CC(=O)O)NC(=O)[C@H](CO)NC(=O)[C@@H](NC(=O)[C@H](Cc1ccccc1)NC(=O)[C@@H](NC(=O)CNC(=O)[C@H](Cc1c[nH]cn1)NC(=O)C(C)(C)NC(=O)[C@@H](N)Cc1ccc(O)cc1)[C@@H](C)O)[C@@H](C)O)C(=O)N[C@@H](CCC(=O)O)C(=O)N[C@@H](CCCCN)C(=O)N[C@@H](CCCNC(=N)N)C(=O)N[C@@H](C)C(=O)N[C@@H](C)C(=O)NC(C)(C)C(=O)N[C@@H](CCC(=O)O)C(=O)N[C@@H](Cc1ccccc1)C(=O)N[C@H](C(=O)N[C@@H](CCC(=O)O)C(=O)N[C@@H](Cc1c[nH]c2ccccc12)C(=O)N[C@@H](CC(C)C)C(=O)N[C@@H](CCCCN)C(=O)N[C@@H](CC(N)=O)C(=O)N[C@H](C(=O)NCC(=O)N1CCC[C@H]1C(=O)N[C@@H](CO)C(=O)N[C@@H](CO)C(=O)NCC(=O)N[C@@H](C)C(=O)N1CCC[C@H]1C(=O)N1CCC[C@H]1C(=O)N1CCC[C@H]1C(=O)N[C@@H](CO)C(N)=O)[C@@H](C)O)[C@@H](C)CC)C(=O)O [SEQ ID NO: 28, Y-Aib-H-G-T-F-T-S-D-L-S-K-Q-K(yE-x53)-E-K-R-A-A-Aib-E-F-I-E-W-L-K-N-T-G-P-S-S-G-A-P-P-P-S-NH2] (H-Y[Aib]HGTFTSDLSKQK([γGlu-Palmitoyl])EKRAA[Aib]EFIEWLKNTGPSSGAPPPS-NH2)",10.23,11.32,10.43
"CCCCCCCCCCCCCCCC(=O)N[C@@H](CCC(=O)NCCCC[C@H](NC(=O)[C@H](CCC(N)=O)NC(=O)[C@@H](NC(=O)[C@H](CO)NC(=O)[C@H](CC(C)C)NC(=O)[C@H](CC(=O)O)NC(=O)[C@H](CO)NC(=O)[C@@H](NC(=O)[C@H](Cc1ccccc1)NC(=O)[C@@H](NC(=O)CNC(=O)[C@H](CCC(N)=O)NC(=O)C(C)(C)NC(=O)[C@@H](N)Cc1ccc(O)cc1)[C@@H](C)O)[C@@H](C)O)[C@@H](C)CC)C(=O)N[C@@H](CCC(=O)O)C(=O)N[C@@H](CCCCN)C(=O)N[C@@H](CCCNC(=N)N)C(=O)N[C@@H](C)C(=O)N[C@@H](C)C(=O)N[C@@H](Cc1c[nH]cn1)C(=O)N[C@@H](CCC(=O)O)C(=O)N[C@@H](Cc1ccccc1)C(=O)N[C@H](C(=O)N[C@@H](CCC(=O)O)C(=O)N[C@@H](Cc1c[nH]c2ccccc12)C(=O)N[C@@H](CC(C)C)C(=O)N[C@@H](CCCCN)C(=O)N[C@@H](CC(N)=O)C(=O)N[C@H](C(=O)NCC(=O)N1CCC[C@H]1C(=O)N[C@@H](CO)C(=O)N[C@@H](CO)C(=O)NCC(=O)N[C@@H](C)C(=O)N1CCC[C@H]1C(=O)N1CCC[C@H]1C(=O)N1CCC[C@H]1C(=O)N[C@@H](CO)C(N)=O)[C@@H](C)O)[C@@H](C)CC)C(=O)O [SEQ ID NO: 36, Y-Aib-Q-G-T-F-T-S-D-L-S-I-Q-K(yE-x53)-EKRAAHEFIEWLKNTGPSSGAPPPS-NH2] (H-Y[Aib]QGTFTSDLSIQK([γGlu-Palmitoyl])EKRAAHEFIEWLKNTGPSSGAPPPS-NH2)",11.28,10.40,10.52
"CCCCCCCCCCCCCCCCCC(=O)N[C@@H](CCC(=O)NCCCC[C@H](NC(=O)[C@H](CCC(N)=O)NC(=O)[C@@H](NC(=O)[C@H](CO)NC(=O)[C@H](CC(C)C)NC(=O)[C@H](CC(=O)O)NC(=O)[C@H](CO)NC(=O)[C@@H](NC(=O)[C@H](Cc1ccccc1)NC(=O)[C@@H](NC(=O)CNC(=O)[C@H](CCC(=O)O)NC(=O)C(C)(C)NC(=O)[C@@H](N)Cc1ccc(O)cc1)[C@@H](C)O)[C@@H](C)O)[C@@H](C)CC)C(=O)N[C@@H](CCC(=O)O)C(=O)N[C@@H](CO)C(=O)N[C@@H](CCCCN)C(=O)N[C@@H](C)C(=O)N[C@@H](C)C(=O)N[C@@H](Cc1c[nH]cn1)C(=O)N[C@@H](CCC(=O)O)C(=O)N[C@@H](Cc1ccccc1)C(=O)N[C@H](C(=O)N[C@@H](CCC(=O)O)C(=O)N[C@@H](Cc1c[nH]c2ccccc12)C(=O)N[C@@H](CC(C)C)C(=O)N[C@@H](CCCCN)C(=O)N[C@@H](C)C(=O)NCC(=O)NCC(=O)N1CCC[C@H]1C(=O)N[C@@H](CO)C(=O)N[C@@H](CO)C(=O)NCC(=O)N[C@@H](C)C(=O)N1CCC[C@H]1C(=O)N1CCC[C@H]1C(=O)N1CCC[C@H]1C(=O)N[C@@H](CO)C(=O)N[C@@H](CCCCN)C(N)=O)[C@@H](C)CC)C(=O)O [SEQ ID NO: 58, Y-Aib-E-G-T-F-T-S-D-L-S-I-Q-K(yE-x70)-ESKAAHEFIEWLKAGGPSSGAPPPSK-NH2] (H-Y[Aib]EGTFTSDLSIQK([γGlu-Stearoyl])ESKAAHEFIEWLKAGGPSSGAPPPSK-NH2)",10.90,7.80,11.07
"CCCCCCCCCCCCCCCC(=O)N[C@@H](CCC(=O)NCCCC[C@H](NC(=O)[C@H](CCC(N)=O)NC(=O)[C@@H](NC(=O)[C@H](CO)NC(=O)[C@H](CC(C)C)NC(=O)[C@H](CC(=O)O)NC(=O)[C@H](CO)NC(=O)[C@@H](NC(=O)[C@H](Cc1ccccc1)NC(=O)[C@@H](NC(=O)CNC(=O)[C@H](CCC(N)=O)NC(=O)C(C)(C)NC(=O)[C@@H](N)Cc1ccc(O)cc1)[C@@H](C)O)[C@@H](C)O)[C@@H](C)CC)C(=O)N[C@@H](CC(=O)O)C(=O)N[C@@H](CCC(=O)O)C(=O)N[C@@H](CCCNC(=N)N)C(=O)N[C@@H](C)C(=O)N[C@@H](C)C(=O)N[C@@H](CCCCN)C(=O)N[C@@H](CC(=O)O)C(=O)N[C@@H](Cc1ccccc1)C(=O)N[C@H](C(=O)N[C@@H](CCC(=O)O)C(=O)N[C@@H](Cc1c[nH]c2ccccc12)C(=O)N[C@@H](CC(C)C)C(=O)N[C@@H](CCCCN)C(=O)N[C@@H](C)C(=O)NCC(=O)NCC(=O)N1CCC[C@H]1C(=O)N[C@@H](CO)C(=O)N[C@@H](CO)C(=O)NCC(=O)N[C@@H](C)C(=O)N1CCC[C@H]1C(=O)N1CCC[C@H]1C(=O)N1CCC[C@H]1C(=O)N[C@@H](CO)C(N)=O)[C@@H](C)CC)C(=O)O [SEQ ID NO: 35, Y-Aib-Q-G-T-F-T-S-D-L-S-I-Q-K(yE-x53)-DERAAKDFIEWLKAGGPSSGAPPPS-NH2] (H-Y[Aib]QGTFTSDLSIQK([γGlu-Palmitoyl])DERAAKDFIEWLKAGGPSSGAPPPS-NH2)",11.46,9.91,10.74
